Test results taken from paper PMC11087588, “Genetic and functional diversity of β-N-acetylgalactosamine-targeting glycosidases expanded by deep-sea metagenome analysis” (Nature Communications, 2024).

Tests used:
NgaDssm = target: T1, NgaDssm (metagenome, UniProt Z9PL66MBS5); assay: crystal structure of complex; type: binding; details: 5 mM ligand in crystallization; active site, oxazolinium intermediate analogue
T1 construct: signal peptide removed; pET-47b(+), E. coli BL21 Star (DE3); His tag cut with HRV3C; monomer
T1 sequence (Z9PL66MBS5 4-542): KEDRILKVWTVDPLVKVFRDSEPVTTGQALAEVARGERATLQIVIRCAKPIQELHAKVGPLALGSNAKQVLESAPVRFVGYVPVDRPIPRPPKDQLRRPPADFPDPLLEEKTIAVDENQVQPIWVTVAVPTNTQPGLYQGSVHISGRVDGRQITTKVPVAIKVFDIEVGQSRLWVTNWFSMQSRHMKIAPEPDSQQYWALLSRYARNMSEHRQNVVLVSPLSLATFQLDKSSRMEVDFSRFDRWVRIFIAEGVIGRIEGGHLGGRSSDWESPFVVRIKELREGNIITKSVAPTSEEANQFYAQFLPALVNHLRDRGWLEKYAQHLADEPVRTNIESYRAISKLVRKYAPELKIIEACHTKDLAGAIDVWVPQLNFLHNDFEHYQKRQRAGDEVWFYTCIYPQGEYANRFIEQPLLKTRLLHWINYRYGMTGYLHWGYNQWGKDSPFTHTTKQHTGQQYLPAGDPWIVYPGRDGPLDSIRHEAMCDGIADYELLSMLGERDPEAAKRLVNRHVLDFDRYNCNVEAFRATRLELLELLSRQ

NgaP2 = target: T2, NgaP2 (Paenibacillus sp. TS12, UniProt A0AAT8XUB3); assay: crystal structure of complex; type: binding; details: 5 mM ligand in crystallization; active site, oxazolinium intermediate analogue
T2 construct: cloned from genomic DNA, pET-47b(+), E. coli BL21 Star (DE3); His tag cut with HRV3C; monomer; not the GH123 NgaP of the same strain
T2 sequence (A0AAT8XUB3 4-581): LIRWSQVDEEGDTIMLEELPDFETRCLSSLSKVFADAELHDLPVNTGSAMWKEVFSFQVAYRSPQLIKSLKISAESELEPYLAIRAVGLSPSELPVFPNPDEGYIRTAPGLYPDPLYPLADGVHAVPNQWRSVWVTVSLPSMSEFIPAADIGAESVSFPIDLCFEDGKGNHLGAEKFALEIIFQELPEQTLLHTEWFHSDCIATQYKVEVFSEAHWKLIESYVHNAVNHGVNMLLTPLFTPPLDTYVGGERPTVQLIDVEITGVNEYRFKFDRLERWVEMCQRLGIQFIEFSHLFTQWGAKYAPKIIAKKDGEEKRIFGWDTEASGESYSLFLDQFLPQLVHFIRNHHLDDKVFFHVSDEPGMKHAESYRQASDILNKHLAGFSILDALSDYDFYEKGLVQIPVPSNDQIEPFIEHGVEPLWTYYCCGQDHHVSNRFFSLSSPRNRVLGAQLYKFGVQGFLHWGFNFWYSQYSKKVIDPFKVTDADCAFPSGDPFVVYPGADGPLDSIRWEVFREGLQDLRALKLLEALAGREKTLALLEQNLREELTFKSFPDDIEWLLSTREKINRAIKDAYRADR

Compound: CC1=N[C@@H]2[C@@H](O)[C@@H](O)[C@@H](CO)O[C@@H]2S1 [GalNAc-thiazoline]
- crystal structure of complex (NgaDssm): the structures of the NgaAt, NgaDssm, and NgaP2 complexes with GalNAc-thiazoline were successfully characterized
- crystal structure of complex (NgaP2): the structures of the NgaAt, NgaDssm, and NgaP2 complexes with GalNAc-thiazoline were successfully characterized
